# From patent US12102682B1, “Injectable photothermal hydrogel based on melanin, preparation method, and application thereof” (OCEAN UNIVERSITY OF CHINA, priority 2023, dated 2024)
# Counter-ions that a name gives are not always drawn.
# Test: Body weight, organ index and HE histopathology of treated mice
# Assay type: in vivo
# Conditions: for Change in body weight: tumor-bearing mice, intratumoral injection, 14 days, DOX 5 mg/kg, ICG 1 mg/kg, LASER groups 808 nm 1 W/cm^2 5 min
# Experimental: Thirty female mice were randomly divided into 6 groups with 5 mice per group: (1) a saline group: injection of saline only; (2) a DOX group (5 mg/kg): injection of DOX; (3) a GEL/LASER group: a combined effect of the HPCS/MP hydrogel and NIR light irradiation; (4) a GEL/DOX (5 mg/kg) group: an effect of the HPCS/MP hydrogel encapsulating DOX·HCL; (5) a GEL/DOX (5 mg/kg)/LASER group: a combined effect of HPCS/MP hydrogel encapsulating DOX·HCL and NIR light irradiation, and (6) an indocyanine green (ICG) (1 mg/kg) group: injection of ICG. The different groups of mice were injected with 100 μL of saline, DOX, ICG, an HPCS/MP hydrogel precursor solution, and a GEL/DOX hydrogel precursor solution by intratumoral injection.
# In the laser irradiation group LASER was irradiated for 5 min using an laser of 808 nm at a power of 1 W/cm^2 on days 2, 4, 6, 8, 10, and 12 after drug administration, and an irradiated site was a tumor site visible to naked eyes, with a light source positioned 5 cm from a body surface. The date of irradiation was designated as day 1, and an observation period extended to 14 days. A tumor volume was measured with a vernier caliper and a weight of the mice was weighed using an electronic balance every two days, and then a curve of the tumor volume, the body weight, and time was plotted. On the 14th day, the mice were euthanized, and axillary tumor bodies and tissues of the heart, liver, spleen, lung, and kidney of the mice were collected. The weights of the tumors and organ tissues of the various groups were accurately measured and recorded to calculate a tumor inhibition rate and an organ index of each group. Then immunohistochemistry and HE staining were performed for pathological analysis.
Compound,"HE staining of liver sections compared with control group (mice, 14th day)","HE staining of lung tissues (mice, 14th day)","HE staining of renal tissue sections (mice, 14th day)","HE staining of spleen tissues compared with control group (mice, 14th day)","Liver index compared to control group (mice, 14th day)",Change in body weight
"COc1cccc2c1C(=O)c1c(O)c3c(c(O)c1C2=O)C[C@@](O)(C(=O)CO)C[C@@H]3O[C@H]1C[C@H](N)[C@H](O)[C@H](C)O1 [DOX, doxorubicin hydrochloride]",very loose,some degree of damage,some slight damage,tissues became loose,significantly reduced,significant downward trend in the body weight
"CC1(C)C(/C=C/C=C/C=C/C=C2\N(CCCCS(=O)(=O)O)c3ccc4ccccc4c3C2(C)C)=[N+](CCCCS(=O)(=O)[O-])c2ccc3ccccc3c21 [ICG, indocyanine green]",slight loosening,–,–,–,–,decrease trend in the body weight
